Measured values reported in patent US20170305922A1, “CARM1 INHIBITORS AND USES THEREOF” (Epizyme, Inc., priority 2014, published 2017).
One block for each compound: values may come before it.

Legend:
[1] = tested on: asymmetric di-methyl PABP1 in RKO cells; experiment: RKO methylation assay: In Cell Western (ICW) for asymmetric di-methyl PABP1 (PABP1me2a); conditions: Homo sapiens, RKO, 48 h, Cellular-based (PABP1me2a) ICW (In Cell Western) assay
In short: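 In-cell western on compound-exposed RKO cells (48 hours): asymmetric di-methyl PABP1 detected by antibody at 800 nm, DNA content by DRAQ5 at 700 nm. Percent inhibition from signal ratios against DMSO (minimum) and 20 μM reference compound (maximum) wells; IC50 curves fitted from triplicates.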

[2] = biological target: T1, Human CARM1 (PRMT4) (Homo sapiens, UniProt Q86X55); experiment: CARM1 enzyme assay on peptide substrates (3H-SAM Flashplate); conditions: Biochemical assay; CARM1 0.25 nM, 3H-SAM 30 nM, peptide 250 nM; read-out: Biochem IC50
T1 construct: Flag-CARM1-His was eluted with 200 ug/ml FLAG peptide in buffer A; made in house; host or cells: HEK 293F cells infected with recombinant baculovirus (pFastBacMam)
T1 sequence (Q86X55 1-585 isoform Q86X55-1): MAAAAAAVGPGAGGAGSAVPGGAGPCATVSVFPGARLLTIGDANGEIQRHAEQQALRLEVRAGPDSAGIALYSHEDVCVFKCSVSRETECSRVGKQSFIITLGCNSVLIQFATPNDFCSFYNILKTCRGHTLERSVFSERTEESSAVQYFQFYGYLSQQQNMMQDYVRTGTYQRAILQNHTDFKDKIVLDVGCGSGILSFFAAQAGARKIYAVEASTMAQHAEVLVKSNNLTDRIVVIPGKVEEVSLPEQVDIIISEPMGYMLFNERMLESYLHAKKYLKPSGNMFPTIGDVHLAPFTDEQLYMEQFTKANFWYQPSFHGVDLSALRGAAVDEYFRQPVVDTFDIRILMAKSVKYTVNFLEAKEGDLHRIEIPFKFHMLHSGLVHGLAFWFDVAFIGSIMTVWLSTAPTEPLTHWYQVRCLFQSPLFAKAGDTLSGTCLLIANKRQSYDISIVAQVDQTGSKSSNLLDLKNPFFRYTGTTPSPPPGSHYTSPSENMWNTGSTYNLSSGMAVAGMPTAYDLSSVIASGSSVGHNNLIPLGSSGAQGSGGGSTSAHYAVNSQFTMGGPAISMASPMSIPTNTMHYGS

Compound: CNC[C@@H](O)COc1ccc(Cl)c(-c2nc(-c3c(C)noc3C)c(C)c(N3CC4(C3)CN([C@@H](C)C(F)(F)F)C4)n2)c1 [Example 331]
IC50 [1]: 32.9 nM
IC50 [2]: 6.31 nM

Compound: CNC[C@@H](O)COc1ccc(Cl)c(-c2nc(-c3c(C)noc3C)c(C)c(N3CC4(CCN(CC(F)(F)F)CC4)C3)n2)c1 [Example 46]
IC50 [1]: 35 nM
IC50 [2]: 17.4 nM

Compound: CNC[C@@H](O)COc1ccc(F)c(-c2nc(-c3c(C)noc3C)c(C)c(N3CC4(CCC(F)CC4)C3)n2)c1 [Example 56]
IC50 [1]: 113 nM
IC50 [2]: 3.8 nM

Compound: CNC[C@@H](O)COc1ccc(Cl)c(-c2nc(-c3c(C)c(C#N)nn3C)c(C)c(N3CC4(CCN(C(=O)OC)CC4)C3)n2)c1 [Example 345]
IC50 [1]: 262 nM
IC50 [2]: 5.66 nM

Compound: CNC[C@@H](O)COc1ccc(Cl)c(-c2nc(-c3c(C)noc3C)c(C)c(N3CC4(CN(CCC(F)(F)F)C4)C3)n2)c1 [Example 264]
IC50 [1]: 51.9 nM
IC50 [2]: 4.11 nM

Compound: CNC[C@@H](O)COc1ccc(Cl)c(-c2nc(-c3c(C)noc3C)c(C)c(N3CC4(CCN(C(=O)OC)CC4)C3)n2)c1Cl [Example 338]
IC50 [1]: 1820 nM
IC50 [2]: 31.1 nM

Compound: CNC[C@@H](O)COc1ccc(Cl)c(-c2nc(-c3c(C)noc3C)c(C)c(N3CC4(C3)CN([C@H](C)C(F)(F)F)C4)n2)c1 [Example 330]
IC50 [1]: 40.9 nM
IC50 [2]: 4.83 nM

Compound: CNC[C@@H](O)COc1ccc(Cl)c(-c2nc(-c3c(C#N)cnn3C)c(C)c(N3Cc4cncnc4C3)n2)c1 [Example 349]
IC50 [1]: 3110 nM
IC50 [2]: 7.81 nM

Compound: CNC[C@@H](O)COc1ccc(Cl)c(-c2nc(-c3c(C)noc3C)c(C)c(N3CC4(CC(N5CCC5)C4)C3)n2)c1 [Example 268]
IC50 [1]: 1350 nM
IC50 [2]: 1.26 nM

Compound: CNC[C@@H](O)COc1ccc(Cl)c(-c2nc(-c3c(C)c(Cl)nn3C)c(C)c(N3CC4(CCCN(C(=O)OC)C4)C3)n2)c1 [Example 295]
IC50 [1]: 82.7 nM
IC50 [2]: 3.78 nM

Compound: CNC[C@@H](O)COc1ccc(Cl)c(-c2nc(-c3c(C)noc3C)c(C)c(N3C[C@@H]4C[C@H]3CN4CC(F)F)n2)c1 [Example 137]
IC50 [1]: 311 nM
IC50 [2]: 8 nM

Compound: CNC[C@@H](O)COc1ccc(Cl)c(-c2nc(-c3c(C)noc3C)c(C)c(N3CC4(CC(OC(F)(F)F)C4)C3)n2)c1 [Example 228]
IC50 [1]: 73 nM
IC50 [2]: 4.7 nM

Compound: CCn1ncc(Cl)c1-c1nc(-c2cc(OC[C@H](O)CNC)ccc2Cl)nc(N2Cc3cncnc3C2)c1C [Example 76]
IC50 [1]: 268 nM
IC50 [2]: 4.8 nM

Compound: CNC[C@@H](O)COc1ccc(Cl)c(-c2nc(CCC3CN(C(=O)OC)C3)c(C)c(-c3c(C)noc3C)n2)c1 [Example 121]
IC50 [1]: 257 nM
IC50 [2]: 13.4 nM

Compound: CNC[C@@H](O)COc1ccc(Cl)c(-c2nc(-c3c(Cl)cnn3C)c(C)c(N3CC4=C(CN(C(=O)OC)CC4)C3)n2)c1 [Example 334]
IC50 [1]: 43.4 nM
IC50 [2]: 2.53 nM

Compound: CNC[C@@H](O)COc1ccc(Cl)c(-c2nc(-c3c(C)c(Cl)nn3C)c(C)c(N3Cc4cnc(N5CC(F)(F)C5)nc4C3)n2)c1 [Example 146]
IC50 [1]: 26 nM
IC50 [2]: 2.7 nM

Compound: CNC[C@@H](O)COc1ccc(Cl)c(-c2nc(-c3c(C)c(Br)nn3C)c(C)c(N3CC4(CC(OC(F)(F)F)C4)C3)n2)c1 [Example 238]
IC50 [1]: 116 nM
IC50 [2]: 5 nM

Compound: CNC[C@@H](O)COc1ccc(Cl)c(-c2nc(-c3c(C)noc3C)c(C)c(N3C[C@H]4C[C@@H]3CN4CC(F)(F)F)n2)c1 [Example 151]
IC50 [1]: 668 nM
IC50 [2]: 12.1 nM

Second part, the compound after the results:

IC50 [1]: 56 nM
IC50 [2]: 2.1 nM
Compound: CNC[C@@H](O)COc1ccc(Cl)c(-c2nc(-c3c(C)cnn3C)c(C)c(N3Cc4cccnc4C3)n2)c1 [Example 82]

IC50 [1]: 84 nM
IC50 [2]: 5.7 nM
Compound: CCOc1ncc2c(n1)CN(c1nc(-c3cc(OC[C@H](O)CNC)ccc3Cl)nc(-c3c(C)noc3CC)c1C)C2 [Example 199]

IC50 [1]: 346 nM
IC50 [2]: 5.1 nM
Compound: CNC[C@@H](O)COc1ccc(Cl)c(-c2nc(-c3c(C)noc3C)c(C)c(N3CC(F)(C(=O)N(C)C)C3)n2)c1 [Example 185]

IC50 [1]: 173 nM
IC50 [2]: 6.52 nM
Compound: CNC[C@@H](O)COc1ccc(Cl)c(-c2nc(-c3c(C)noc3C)c(C)c(N3CC4(CC(C#N)C4)C3)n2)c1 [Example 306]

IC50 [1]: 44 nM
IC50 [2]: 2.2 nM
Compound: CNC[C@@H](O)COc1ccc(Cl)c(-c2nc(-c3c(C)noc3C)c(C)c(N3Cc4cc(C(F)(F)F)cnc4C3)n2)c1 [Example 14]

IC50 [1]: 348 nM
IC50 [2]: 4.9 nM
Compound: CNC[C@@H](O)COc1ccc(Cl)c(-c2nc(-c3c(C)noc3C)c(C)c(N3CCN(C(=O)OCC(F)F)CC3)n2)c1 [Example 232]

IC50 [1]: 14 nM
IC50 [2]: 1.9 nM
Compound: CNC[C@@H](O)COc1ccc(Cl)c(-c2nc(-c3c(C)noc3C)c(C)c(N3Cc4ccc(N5CC(OC)C5)nc4C3)n2)c1 [Example 229]

IC50 [1]: 66 nM
IC50 [2]: 7.2 nM
Compound: CNC[C@@H](O)COc1ccc(Cl)c(-c2nc(-c3c(C)noc3C)c(C)c(N3Cc4cn(CCOC)nc4C3)n2)c1 [Example 112]

IC50 [1]: 38 nM
IC50 [2]: 2 nM
Compound: CCOc1ccc2c(n1)CN(c1nc(-c3cc(OC[C@H](O)CNC)ccc3Cl)nc(-c3c(C)noc3C)c1C)C2 [Example 245]

IC50 [1]: 15 nM
IC50 [2]: 2.8 nM
Compound: CNC[C@@H](O)COc1ccc(Cl)c(-c2nc(-c3c(C)noc3C)c(C)c(N3Cc4cnc(N5CC(F)(F)C5)nc4C3)n2)c1 [Example 143]

IC50 [1]: 38 nM
IC50 [2]: 1.9 nM
Compound: CNC[C@@H](O)COc1ccc(Cl)c(-c2nc(-c3c(C)noc3C)c(C)c(N3Cc4ccc(OC)nc4C3)n2)c1 [Example 170]

IC50 [1]: 140 nM
IC50 [2]: 1.9 nM
Compound: CNC[C@@H](O)COc1ccc(F)c(-c2nc(-c3c(C)noc3C)c(C)c(N3Cc4cn(C5CC5)nc4C3)n2)c1 [Example 15]

IC50 [1]: 419 nM
IC50 [2]: 6 nM
Compound: CNC[C@@H](O)COc1ccc(Cl)c(-c2nc(-c3c(C)noc3C)c(C)c(N3CC4(C3)CC(O)(C(F)F)C4)n2)c1 [Example 218]

IC50 [1]: 16 nM
IC50 [2]: 2.8 nM
Compound: CNC[C@@H](O)COc1ccc(Cl)c(-c2nc(-c3c(C)noc3C)c(C)c(N3Cc4cnc(N5CC(OC)C5)nc4C3)n2)c1 [Example 147]

IC50 [1]: 129 nM
IC50 [2]: 0.6 nM
Compound: CNC[C@@H](O)COc1ccc(Cl)c(-c2nc(-c3c(C)noc3C)c(C)c(N3Cc4nccc(N(C)C)c4C3)n2)c1 [Example 209]

IC50 [1]: 2210 nM
IC50 [2]: 0.9 nM
Compound: CNC[C@@H](O)COc1ccc(Cl)c(-c2nc(-c3c(C)noc3C)c(C)c(N3CC4(CC(NC)C4)C3)n2)c1 [Example 282]

IC50 [1]: 13 nM
IC50 [2]: 1.7 nM
Compound: CCc1onc(C)c1-c1nc(-c2cc(OC[C@H](O)CNC)ccc2Cl)nc(N2Cc3cnc(N4CCC4)nc3C2)c1C [Example 175]

IC50 [1]: 120 nM
IC50 [2]: 2.1 nM
Compound: CNC[C@@H](O)COc1ccc(Cl)c(-c2nc(-c3c(C)noc3C)c(C)c(N3Cc4nc(C5CC5)oc4C3)n2)c1 [Example 210]

IC50 [1]: 295 nM
IC50 [2]: 4.8 nM
Compound: CNC[C@@H](O)COc1ccc(Cl)c(-c2nc(-c3c(C)noc3C)c(C)c(N3CCN(CC(F)(F)F)CC3)n2)c1 [Example 201]

IC50 [1]: 62 nM
IC50 [2]: 4 nM
Compound: CNC[C@@H](O)COc1ccc(Cl)c(-c2nc(-c3c(C)noc3C)c(C)c(N3CC4=C(CN(CC(F)(F)F)CC4)C3)n2)c1 [Example 247]

IC50 [1]: 18 nM
IC50 [2]: 1.9 nM
Compound: CNC[C@@H](O)COc1ccc(Cl)c(-c2nc(-c3c(C)c(Cl)nn3C)c(C)c(N3Cc4cnc(OC)nc4C3)n2)c1 [Example 152]
